PubChem BioAssay AID256 (DTP/NCI, 2004)
Inconclusive results and toxic doses are left out. The calls were made as follows: active = survival T/C of 150% or more; inactive = T/C below 125% in these data.

System: CD2F1 mice, L1210 leukemia ip, survival T/C
Assay: NCI In Vivo Anticancer Drug Screen. Data for tumor model L1210 Leukemia (intraperitoneal) in CD2F1 (CDF1) mice
Conditions: higher = longer survival
Summary of the method: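 Mice carrying a transplanted tumor received test compound or vehicle alone. The value is the measurement in the treated group divided by that in the vehicle-treated control group.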

[1] = endpoint: mean survival time, dose: 100.0 mg/kg/injection, schedule: Q04DX003 (ip), vehicle: saline
[2] = endpoint: mean survival time, dose: 200.0 mg/kg/injection, schedule: Q04DX003 (ip), vehicle: saline
[3] = endpoint: mean survival time, dose: 100.0 mg/kg/injection, schedule: Q01DX001 (ip), vehicle: saline
[4] = endpoint: mean survival time, dose: 200.0 mg/kg/injection, schedule: Q01DX001 (ip), vehicle: saline
[5] = endpoint: mean survival time, dose: 400.0 mg/kg/injection, schedule: Q01DX001 (ip), vehicle: saline
[6] = endpoint: mean survival time, dose: 75.0 mg/kg/injection, schedule: Q01DX001 (ip), vehicle: saline
[7] = endpoint: mean survival time, dose: 150.0 mg/kg/injection, schedule: Q01DX001 (ip), vehicle: saline
[8] = endpoint: mean survival time, dose: 100.0 mg/kg/injection, schedule: Q01DX009 (ip), vehicle: saline with Tween-80
[9] = endpoint: mean survival time, dose: 200.0 mg/kg/injection, schedule: Q01DX009 (ip), vehicle: saline with Tween-80
[10] = endpoint: mean survival time, dose: 400.0 mg/kg/injection, schedule: Q01DX009 (ip), vehicle: saline with Tween-80
[11] = endpoint: mean survival time, dose: 100.0 mg/kg/injection, schedule: Q04DX003 (ip), vehicle: saline with Tween-80
[12] = endpoint: mean survival time, dose: 200.0 mg/kg/injection, schedule: Q04DX003 (ip), vehicle: saline with Tween-80
[13] = endpoint: mean survival time, dose: 50.0 mg/kg/injection, schedule: Q01DX009 (ip), vehicle: saline with Tween-80
[14] = endpoint: mean survival time, dose: 100.0 mg/kg/injection, schedule: Q01DX001 (ip), vehicle: saline with Tween-80
[15] = endpoint: mean survival time, dose: 100.0 mg/kg/injection, schedule: Q01DX009 (ip), vehicle: other
[16] = endpoint: mean survival time, dose: 200.0 mg/kg/injection, schedule: Q01DX009 (ip), vehicle: other
[17] = endpoint: mean survival time, dose: 25.0 mg/kg/injection, schedule: Q01DX009 (ip), vehicle: saline
[18] = endpoint: mean survival time, dose: 50.0 mg/kg/injection, schedule: Q01DX009 (ip), vehicle: saline
[19] = endpoint: mean survival time, dose: 100.0 mg/kg/injection, schedule: Q01DX009 (ip), vehicle: saline

Measured: T/C

CC(C)(O)C#CC(C)(C)O
inactive: [1] 101 % of control | [2] 101 % of control | endpoint: mean survival time, dose: 400.0 mg/kg/injection, schedule: Q04DX003 (ip), vehicle: saline 97 % of control

CC[N+]1(CC)N=C([O-])N(C)C1=O
inactive: [3] 103 % of control | [4] 101 % of control | [5] 97 % of control

CCCCCCCCCC(=O)N(C)C
inactive: [6] 98 % of control | [7] 104 % of control

O=S(O)c1ccccc1
inactive: [3] 92 % of control | [4] 94 % of control | [5] 110 % of control

O=C(O)c1cc(N2CCCCC2)ccn1
inactive: [3] 94 % of control | [4] 100 % of control

CCOC(=O)CC(=O)c1c(C)cc(C)cc1C
inactive: [8] 89 % of control | [9] 96 % of control | [10] 107 % of control

[C-]#[O+].[Cl][Sn]([Cl])[Cl].[Cl][Sn]([Cl])[Cl].[Pt].c1ccc([PH+](c2ccccc2)c2ccccc2)cc1.c1ccc([PH+](c2ccccc2)c2ccccc2)cc1
inactive: endpoint: median survival time, dose: 3.12 mg/kg/injection, schedule: Q04DX003 (ip), vehicle: saline with Tween-80 108 % of control | endpoint: median survival time, dose: 6.25 mg/kg/injection, schedule: Q04DX003 (ip), vehicle: saline with Tween-80 106 % of control | endpoint: median survival time, dose: 12.5 mg/kg/injection, schedule: Q04DX003 (ip), vehicle: saline with Tween-80 110 % of control | endpoint: median survival time, dose: 25.0 mg/kg/injection, schedule: Q04DX003 (ip), vehicle: saline with Tween-80 113 % of control | endpoint: median survival time, dose: 50.0 mg/kg/injection, schedule: Q04DX003 (ip), vehicle: saline with Tween-80 110 % of control | endpoint: median survival time, dose: 100.0 mg/kg/injection, schedule: Q04DX003 (ip), vehicle: saline with Tween-80 112 % of control | endpoint: median survival time, dose: 200.0 mg/kg/injection, schedule: Q04DX003 (ip), vehicle: saline with Tween-80 108 % of control

CCCCCCCCCCCCCCCCCS(=O)S(=O)O (stereo unspecified)
inactive: [11] 98 % of control | [12] 94 % of control | endpoint: mean survival time, dose: 400.0 mg/kg/injection, schedule: Q04DX003 (ip), vehicle: saline with Tween-80 93 % of control

CCOC(=O)/C=C/c1c[nH]c(C(=O)OCC)c1
inactive: endpoint: mean survival time, dose: 100.0 mg/kg/injection, schedule: Q04DX002 (ip), vehicle: other 93 % of control | endpoint: mean survival time, dose: 200.0 mg/kg/injection, schedule: Q04DX002 (ip), vehicle: other 93 % of control | endpoint: mean survival time, dose: 400.0 mg/kg/injection, schedule: Q04DX002 (ip), vehicle: other 100 % of control

CC1(C)COC(=O)N1
inactive: endpoint: mean survival time, dose: 75.0 mg/kg/injection, schedule: Q01DX009 (ip), vehicle: saline with Tween-80 104 % of control | [1] 108 % of control | endpoint: mean survival time, dose: 150.0 mg/kg/injection, schedule: Q01DX009 (ip), vehicle: saline with Tween-80 101 % of control

Cc1ccc([N+](=O)[O-])cc1NC(=O)NNC(=O)CNC(=O)Nc1ccc(F)cc1
inactive: [9] 87 % of control | [10] 92 % of control

CCN(CC)C(C(=O)Nc1ccccc1)C(=O)Nc1ccccc1
inactive: [8] 98 % of control | [9] 93 % of control | [10] 98 % of control

Nc1ncnc2c1ncn2C1OC(C(N)C(=O)O)C(O)C1O (stereo unspecified)
inactive: endpoint: mean survival time, dose: 6.25 mg/kg/injection, schedule: Q01DX005 (ip), vehicle: distilled water + Tween-80 101 % of control | endpoint: mean survival time, dose: 12.5 mg/kg/injection, schedule: Q01DX005 (ip), vehicle: distilled water + Tween-80 96 % of control | endpoint: mean survival time, dose: 25.0 mg/kg/injection, schedule: Q01DX005 (ip), vehicle: distilled water + Tween-80 98 % of control | endpoint: mean survival time, dose: 50.0 mg/kg/injection, schedule: Q01DX005 (ip), vehicle: distilled water + Tween-80 98 % of control | endpoint: mean survival time, dose: 100.0 mg/kg/injection, schedule: Q01DX005 (ip), vehicle: distilled water + Tween-80 103 % of control

c1ccc(NC2=NCCO2)cc1
inactive: [11] 93 % of control | [12] 98 % of control

CC1(C)CC(=O)C=C(N2CCC(CCCC3CCN(C4=CC(=O)CC(C)(C)C4)CC3)CC2)C1
inactive: [13] 102 % of control | [14] 100 % of control | [8] 95 % of control | endpoint: mean survival time, dose: 200.0 mg/kg/injection, schedule: Q01DX001 (ip), vehicle: saline with Tween-80 93 % of control

CC(=O)Nc1ccc([N+](=O)[O-])c2ccccc12
inactive: endpoint: mean survival time, dose: 37.5 mg/kg/injection, schedule: Q04DX002 (ip), vehicle: saline with Tween-80 101 % of control | endpoint: mean survival time, dose: 75.0 mg/kg/injection, schedule: Q04DX002 (ip), vehicle: saline with Tween-80 101 % of control | endpoint: mean survival time, dose: 150.0 mg/kg/injection, schedule: Q04DX002 (ip), vehicle: saline with Tween-80 104 % of control

N=C(N)Cc1ccc(NC(=O)c2ccc(C(=O)Nc3ccc(CC(=N)N)cc3)cc2)cc1
inactive: endpoint: mean survival time, dose: 7.2 mg/kg/injection, schedule: Q01DX009 (ip), vehicle: acetone 102 % of control | endpoint: mean survival time, dose: 10.8 mg/kg/injection, schedule: Q01DX009 (ip), vehicle: acetone 121 % of control

CC(C)OC(=O)Nc1ccc(F)cc1
inactive: [15] 94 % of control | [16] 91 % of control | endpoint: mean survival time, dose: 400.0 mg/kg/injection, schedule: Q01DX009 (ip), vehicle: other 100 % of control

O=C(NCCCCC(NC(=O)OCc1ccccc1)C(=O)ON1C(=O)CCC1=O)OCc1ccccc1 (stereo unspecified)
inactive: endpoint: mean survival time, dose: 12.5 mg/kg/injection, schedule: Q01DX009 (ip), vehicle: other 96 % of control | endpoint: mean survival time, dose: 25.0 mg/kg/injection, schedule: Q01DX009 (ip), vehicle: other 86 % of control | endpoint: mean survival time, dose: 50.0 mg/kg/injection, schedule: Q01DX009 (ip), vehicle: other 90 % of control | [15] 94 % of control | [16] 97 % of control

N#Cc1nc(-c2ccco2)c(-c2ccco2)nc1C#N
inactive: endpoint: mean survival time, dose: 25.0 mg/kg/injection, schedule: Q04DX002 (ip), vehicle: saline with Tween-80 102 % of control | endpoint: mean survival time, dose: 50.0 mg/kg/injection, schedule: Q04DX002 (ip), vehicle: saline with Tween-80 90 % of control | [14] 96 % of control | endpoint: mean survival time, dose: 100.0 mg/kg/injection, schedule: Q04DX002 (ip), vehicle: saline with Tween-80 90 % of control

C[CH2][Sn]1([CH2]C)[O]OC(c2ccccc2)[O]1 (stereo unspecified)
inactive: endpoint: mean survival time, dose: 0.78 mg/kg/injection, schedule: Q01DX009 (ip), vehicle: saline with Tween-80 106 % of control | endpoint: mean survival time, dose: 1.56 mg/kg/injection, schedule: Q01DX009 (ip), vehicle: saline with Tween-80 96 % of control | endpoint: mean survival time, dose: 3.12 mg/kg/injection, schedule: Q01DX009 (ip), vehicle: saline with Tween-80 98 % of control | endpoint: mean survival time, dose: 6.25 mg/kg/injection, schedule: Q01DX009 (ip), vehicle: saline with Tween-80 106 % of control | endpoint: mean survival time, dose: 12.5 mg/kg/injection, schedule: Q01DX009 (ip), vehicle: saline with Tween-80 112 % of control

CCN(CC)Cc1ccccn1
inactive: [17] 94 % of control | [18] 97 % of control | [19] 92 % of control | [1] 95 % of control

Nc1ccccc1C1=Nc2cncnc2NC1
inactive: [6] 104 % of control | [7] 102 % of control | endpoint: mean survival time, dose: 300.0 mg/kg/injection, schedule: Q01DX001 (ip), vehicle: saline 93 % of control

CC(=O)N1CCC2(CC1)SSC1(CCN(C(C)=O)CC1)S2
inactive: endpoint: mean survival time, dose: 5.0 mg/kg/injection, schedule: Q01DX009 (ip), vehicle: saline with Tween-80 102 % of control | endpoint: mean survival time, dose: 5.0 mg/kg/injection, schedule: Q04DX003 (ip), vehicle: saline with Tween-80 92 % of control | endpoint: mean survival time, dose: 10.0 mg/kg/injection, schedule: Q01DX009 (ip), vehicle: saline with Tween-80 103 % of control | endpoint: mean survival time, dose: 10.0 mg/kg/injection, schedule: Q04DX003 (ip), vehicle: saline with Tween-80 91 % of control | endpoint: mean survival time, dose: 20.0 mg/kg/injection, schedule: Q01DX009 (ip), vehicle: saline with Tween-80 100 % of control | endpoint: mean survival time, dose: 20.0 mg/kg/injection, schedule: Q04DX003 (ip), vehicle: saline with Tween-80 96 % of control

N=C(N)SCCSC(=N)N
inactive: [17] 92 % of control | [18] 94 % of control | [19] 94 % of control | [1] 100 % of control | [2] 105 % of control

CCOC(C(=O)OC1CCN(C)CC1)(c1ccccc1)c1ccccc1
inactive: endpoint: mean survival time, dose: 25.0 mg/kg/injection, schedule: Q01DX009 (ip), vehicle: saline with Tween-80 98 % of control | [13] 98 % of control | [8] 93 % of control
